Results as given in PubChem BioAssay (NCI).
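Cultured in 96-well plates, cells were exposed to test compound for 48 hours across five concentrations. At the TGI there is no net growth.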

Legend:
Assay in all cases: DTP human tumour cell line panel, 48 h
786-0 renal = test system: 786-0 renal
A498 renal = test system: A498 renal
A549 NSCLC = test system: A549 NSCLC
ACHN renal = test system: ACHN renal
BT-549 breast = test system: BT-549 breast
CAKI-1 renal = test system: CAKI-1 renal
CCRF-CEM leukemia = test system: CCRF-CEM leukemia
COLO 205 colon = test system: COLO 205 colon
DU-145 prostate = test system: DU-145 prostate
EKVX NSCLC = test system: EKVX NSCLC
HCC-2998 colon = test system: HCC-2998 colon
HCT-116 colon = test system: HCT-116 colon
HCT-15 colon = test system: HCT-15 colon
HL-60(TB) leukemia = test system: HL-60(TB) leukemia
HOP-62 NSCLC = test system: HOP-62 NSCLC
HOP-92 NSCLC = test system: HOP-92 NSCLC
HS 578T breast = test system: HS 578T breast
HT29 colon = test system: HT29 colon
IGROV1 ovarian = test system: IGROV1 ovarian
K-562 leukemia = test system: K-562 leukemia
KM12 colon = test system: KM12 colon
LOX IMVI melanoma = test system: LOX IMVI melanoma
M14 melanoma = test system: M14 melanoma
MALME-3M melanoma = test system: MALME-3M melanoma
MCF7 breast = test system: MCF7 breast
MDA-MB-231 breast = test system: MDA-MB-231 breast
MDA-MB-435 = test system: MDA-MB-435
MDA-N = test system: MDA-N
MOLT-4 leukemia = test system: MOLT-4 leukemia
NCI-H226 lung = test system: NCI-H226 lung
NCI-H23 lung = test system: NCI-H23 lung
NCI-H460 lung = test system: NCI-H460 lung
NCI-H522 lung = test system: NCI-H522 lung
NCI/ADR-RES ovarian = test system: NCI/ADR-RES ovarian
OVCAR-3 ovarian = test system: OVCAR-3 ovarian
OVCAR-4 ovarian = test system: OVCAR-4 ovarian
OVCAR-5 ovarian = test system: OVCAR-5 ovarian
OVCAR-8 ovarian = test system: OVCAR-8 ovarian
PC-3 prostate = test system: PC-3 prostate
RPMI-8226 leukemia = test system: RPMI-8226 leukemia
RXF 393 renal = test system: RXF 393 renal
SF-268 CNS = test system: SF-268 CNS
SF-295 CNS = test system: SF-295 CNS
SF-539 CNS = test system: SF-539 CNS
SK-MEL-28 melanoma = test system: SK-MEL-28 melanoma
SK-MEL-5 melanoma = test system: SK-MEL-5 melanoma
SN12C renal = test system: SN12C renal
SNB-19 CNS = test system: SNB-19 CNS
SNB-75 CNS = test system: SNB-75 CNS
SR leukemia = test system: SR leukemia
SW-620 colon = test system: SW-620 colon
T-47D breast = test system: T-47D breast
U251 CNS = test system: U251 CNS
UACC-257 melanoma = test system: UACC-257 melanoma
UO-31 renal = test system: UO-31 renal
SK-MEL-2 melanoma = test system: SK-MEL-2 melanoma
SK-OV-3 ovarian = test system: SK-OV-3 ovarian
TK-10 renal = test system: TK-10 renal
UACC-62 melanoma = test system: UACC-62 melanoma

## CO[C@@H]1C[C@H]2[C@@H]3CC[C@H]([C@@H](C)COC(C)=O)[C@@]3(C)CC[C@@H]2[C@@]2(C)CC[C@H]3C[C@]312
786-0 renal
  TGI: 30.8 µM
A498 renal
  TGI: 35.6 µM
A549 NSCLC
  TGI: 37.3 µM
ACHN renal
  TGI: 30.2 µM
BT-549 breast
  TGI: 27.2 µM
CAKI-1 renal
  TGI: 21.4 µM
CCRF-CEM leukemia
  TGI: 40.7 µM
COLO 205 colon
  TGI: 20.2 µM
DU-145 prostate
  TGI: 27.8 µM
EKVX NSCLC
  TGI: 28 µM
HCC-2998 colon
  TGI: 28.6 µM
HCT-116 colon
  TGI: 22.2 µM
HCT-15 colon
  TGI: 27 µM
HL-60(TB) leukemia
  TGI: 19.1 µM
HOP-62 NSCLC
  TGI: 31.5 µM
HOP-92 NSCLC
  TGI: 35.2 µM
HS 578T breast
  TGI: 39.5 µM
HT29 colon
  TGI: 19.9 µM
IGROV1 ovarian
  TGI: 30.2 µM
K-562 leukemia
  TGI: 27.7 µM
KM12 colon
  TGI: 23.2 µM
LOX IMVI melanoma
  TGI: 23.6 µM
M14 melanoma
  TGI: 38 µM
MALME-3M melanoma
  TGI: 29.4 µM
MCF7 breast
  TGI: 23.6 µM
MDA-MB-231 breast
  TGI: 24.3 µM
MDA-MB-435
  TGI: 29.2 µM
MDA-N
  TGI: 35.4 µM
MOLT-4 leukemia
  TGI: 32.3 µM
NCI-H226 lung
  TGI: 34.9 µM
NCI-H23 lung
  TGI: 25.4 µM
NCI-H460 lung
  TGI: 23.4 µM
NCI-H522 lung
  TGI: 33.2 µM
NCI/ADR-RES ovarian
  TGI: 30.4 µM
OVCAR-3 ovarian
  TGI: 27.7 µM
OVCAR-4 ovarian
  TGI: 44.8 µM
OVCAR-5 ovarian
  TGI: 23.6 µM
OVCAR-8 ovarian
  TGI: 24.7 µM
PC-3 prostate
  TGI: 29.6 µM
RPMI-8226 leukemia
  TGI: 29.9 µM
RXF 393 renal
  TGI: 35.7 µM
SF-268 CNS
  TGI: 40.6 µM
SF-295 CNS
  TGI: 28.3 µM
SF-539 CNS
  TGI: 37.3 µM
SK-MEL-28 melanoma
  TGI: 31.9 µM
SK-MEL-5 melanoma
  TGI: 15.2 µM
SN12C renal
  TGI: 32.1 µM
SNB-19 CNS
  TGI: 31.7 µM
SNB-75 CNS
  TGI: 33.5 µM
SR leukemia
  TGI: 26.5 µM
SW-620 colon
  TGI: 27.3 µM
T-47D breast
  TGI: 31.1 µM
U251 CNS
  TGI: 25.8 µM
UACC-257 melanoma
  TGI: 24.4 µM
UO-31 renal
  TGI: 32.4 µM

## N#Cc1nc(N)c(C#N)[nH]1
786-0 renal
  TGI: > 100 µM
A498 renal
  TGI: > 100 µM
A549 NSCLC
  TGI: > 100 µM
ACHN renal
  TGI: > 100 µM
BT-549 breast
  TGI: > 100 µM
CAKI-1 renal
  TGI: > 100 µM
CCRF-CEM leukemia
  TGI: > 100 µM
COLO 205 colon
  TGI: > 100 µM
DU-145 prostate
  TGI: > 100 µM
EKVX NSCLC
  TGI: > 100 µM
HCC-2998 colon
  TGI: > 100 µM
HCT-116 colon
  TGI: > 100 µM
HCT-15 colon
  TGI: > 100 µM
HL-60(TB) leukemia
  TGI: > 100 µM
HOP-62 NSCLC
  TGI: > 100 µM
HOP-92 NSCLC
  TGI: > 100 µM
HS 578T breast
  TGI: > 100 µM
HT29 colon
  TGI: > 100 µM
IGROV1 ovarian
  TGI: > 100 µM
K-562 leukemia
  TGI: > 100 µM
KM12 colon
  TGI: > 100 µM
LOX IMVI melanoma
  TGI: > 100 µM
M14 melanoma
  TGI: > 100 µM
MALME-3M melanoma
  TGI: > 100 µM
MCF7 breast
  TGI: > 100 µM
MDA-MB-231 breast
  TGI: > 100 µM
MDA-MB-435
  TGI: > 100 µM
MDA-N
  TGI: > 100 µM
MOLT-4 leukemia
  TGI: > 100 µM
NCI-H226 lung
  TGI: > 100 µM
NCI-H23 lung
  TGI: > 100 µM
NCI-H460 lung
  TGI: > 100 µM
NCI-H522 lung
  TGI: > 100 µM
NCI/ADR-RES ovarian
  TGI: > 100 µM
OVCAR-3 ovarian
  TGI: > 100 µM
OVCAR-4 ovarian
  TGI: > 100 µM
OVCAR-5 ovarian
  TGI: > 100 µM
OVCAR-8 ovarian
  TGI: > 100 µM
PC-3 prostate
  TGI: > 100 µM
RPMI-8226 leukemia
  TGI: > 100 µM
RXF 393 renal
  TGI: > 100 µM
SF-268 CNS
  TGI: > 100 µM
SF-295 CNS
  TGI: > 100 µM
SF-539 CNS
  TGI: > 100 µM
SK-MEL-2 melanoma
  TGI: > 100 µM
SK-MEL-28 melanoma
  TGI: > 100 µM
SK-MEL-5 melanoma
  TGI: > 100 µM
SK-OV-3 ovarian
  TGI: > 100 µM
SN12C renal
  TGI: > 100 µM
SNB-19 CNS
  TGI: > 100 µM
SNB-75 CNS
  TGI: > 100 µM
SR leukemia
  TGI: > 100 µM
SW-620 colon
  TGI: > 100 µM
T-47D breast
  TGI: > 100 µM
TK-10 renal
  TGI: > 100 µM
U251 CNS
  TGI: > 100 µM
UACC-257 melanoma
  TGI: > 100 µM
UACC-62 melanoma
  TGI: > 100 µM
UO-31 renal
  TGI: > 100 µM
